From patent US20040171566A1, “Antisense modulation of p38 mitogen activated protein kinase expression” (priority 1999, published 2004)
In the oligonucleotide strings, read from the 5' end, every base follows the letter of its sugar. An asterisk marks phosphorothioate; unmarked linkages are phosphodiester. Other units and linkages are bracketed, terminal groups are in braces. A string of capitals states the bases alone. e = 2'-O-(2-methoxyethyl) (MOE); [5mC] = 5-methylcytosine; d = 2'-deoxy (DNA)

What was measured:
rat p38α mRNA = test: Inhibition of rat p38α mRNA expression in A-10 cells, Northern blot; format: cell-based; details: Rat A-10 cells, 200 nM oligonucleotide, 24 hours
Description: Rat p38α antisense oligonucleotides were screened in Rat A-10 cells. A-10 cells (American Type Culture Collection, Manassas, Va.) were grown in high-glucose DMEM (Life Technologies, Gaithersburg, Md.) medium containing 10% fetal calf serum (FCS). Cells were treated with oligonucleotide as described in Example 2. Oligonucleotide concentration was 200 nM. mRNA was isolated 24 hours after time zero and quantitated by Northern blot as described in Example 2.

mouse p38β mRNA = test: Inhibition of mouse p38β mRNA expression in bEND.3 cells, Northern blot; format: cell-based
Description: (§1) bEND.3, a mouse endothelial cell line (gift of Dr. Werner Risau; see Montesano et al., Cell, 1990, 62, 435, and Stepkowski et al., J. Immunol., 1994, 153, 5336) were grown in high-glucose DMEM (Life Technologies, Gaithersburg, Md.) medium containing 10% fetal bovine serum (FBS) and 1% Penicillin/Streptomycinin. Cells were plated at approximately 2×10^5 cells per 100 mm dish. Within 48 hours of plating, the cells were washed with phosphate-buffered saline (Life Technologies). Then, Opti-MEM7 medium containing 3 μg/mL LIPOFECTIN^7 and an appropriate amount of oligonucleotide were added to the cells. As a control, cells were treated with LIPOFECTIN^7 without oligonucleotide under the same conditions and for the same times as the oligonucleotide-treated samples.
(§2) After 4 hours at 37° C., the medium was replaced with high glucose DMEM medium containing 10% FBS and 1% Penicillin/Streptomycinin. The cells were typically allowed to recover overnight (about 18 to 24 hours) before RNA and/or protein assays were performed as described in Example 2. The p38α, p38β and G3PDH probes used were identical to those described in Example 2.
(§3) Rat p38α antisense oligonucleotides were screened in bEND.3 cells for inhibition of p38α and p38β mRNA expression. The concentration of oligonucleotide used was 100 nM. Oligonucleotides 21844 (SEQ ID NO. 47), 21845 (SEQ ID NO. 48), 21872 (SEQ ID NO. 51), 21873 (SEQ ID NO. 52), 21875 (SEQ ID NO. 54), and 21876 (SEQ ID NO.
(§4) Mouse p38β antisense sequences were screened in bEND.3 cells as described in Example 4.

mouse p38α mRNA [1] = test: Inhibition of mouse p38α mRNA expression in bEND.3 cells, Northern blot; format: cell-based
Description: as §1, §2, §3, §4

IL-6 secretion = IL-6 secretion by IL-1 stimulated bEND.3 cells, ELISA; format: cell-based; details: 48 hours after oligonucleotide
Description: p38 MAPK antisense oligonucleotides were tested for their ability to reduce IL-6 secretion. bEND.3 cells were cultured and treated as described in Example 4 except that 48 hours after oligonucleotide treatment, cells were stimulated for 6 hours with 1 ng/mL recombinant mouse IL-1 (R&D Systems, Minneapolis, Minn.). IL-6 was measured in the medium using an IL-6 ELISA kit (Endogen Inc., Woburn, Mass.).

mouse p38α mRNA [2] = test: Mouse p38α mRNA levels in bEND.3 cells, quantitative real-time PCR; format: cell-based; details: mouse bEND.3 cells, at 50 nM
Summary of the method: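 Mouse bEND.3 cells, antisense oligonucleotide-treated; p38α mRNA measured by one-step real-time RT-PCR (RT 30 min at 48 °C, then 40 cycles) with a FAM/TAMRA probe. Levels normalized to GAPDH or RiboGreen total RNA, and percent inhibition derived from standard curves of untreated-control mRNA.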

human p38α mRNA = test: Human p38α mRNA expression in T-24 cells; details: initial screen of human p38β oligonucleotides
human p38β mRNA = test: Human p38β mRNA expression in T-24 cells; details: initial screen of human p38β oligonucleotides
[3] = 100 nM rat p38α antisense oligonucleotide
[4] = mouse p38β antisense oligonucleotides, screened as in Example 4

Row | Substance | % p38α mRNA EXPRESSION (rat p38α mRNA) [%] | % p38β mRNA Inhibition (mouse p38β mRNA; dose 25 nM) [%] | % p38β mRNA Inhibition (mouse p38β mRNA; dose 100 nM (dose response)) [%] | % p38α mRNA INHIBITION (mouse p38α mRNA [1]; dose 25 nM) [%] | % p38α mRNA INHIBITION (mouse p38α mRNA [1]; dose 100 nM (dose response)) [%] | other results
1 | GoGoToAoAsGsCsTsTsCsTsGsAsCsAsCoToToCoA (antisense eGeGeTeAeA*dG*d[5mC]*dT*dT*d[5mC]*dT*dG*dA*d[5mC]*dA*e[5mC]eTeTe[5mC]eA) [ISIS 21845] | 25 |  |  |  |  | 
2 | GoAoGoCoCsTsGsTsGsCsCsTsGsGsCsAoCoToGoG (antisense eGeAeGe[5mC]e[5mC]*dT*dG*dT*dG*d[5mC]*d[5mC]*dT*dG*dG*d[5mC]*eAe[5mC]eTeGeG) [ISIS 21877] | 12 |  |  |  |  | % p38β mRNA Inhibition (mouse p38β mRNA; [3]): 13%; % p38α mRNA INHIBITION (mouse p38α mRNA [1]; [3]): 55%
3 | AoGoGoToGsCsTsCsAsGsGsAsCsTsCsCoAoToToT (antisense eAeGeGeTeG*d[5mC]*dT*d[5mC]*dA*dG*dG*dA*d[5mC]*dT*d[5mC]*e[5mC]eAeTeTeT) [ISIS 21873] | 19 | 28 | 25 | 54 | 92 | % IL-6 INHIBITION (IL-6 secretion; DOSE 100, 1 ng/mL mouse IL-1 for 6 hours): 49%; reduction of p38α mRNA (mouse p38α mRNA [2]): > 70%; % p38β mRNA Inhibition (mouse p38β mRNA; dose 1 nM): 53%; % p38β mRNA Inhibition (mouse p38β mRNA; dose 5 nM): 31%
4 | CoToGoCoGsAsCsAsTsTsTsTsCsCsAsGoCoGoGoC (antisense e[5mC]eTeGe[5mC]eG*dA*d[5mC]*dA*dT*dT*dT*dT*d[5mC]*d[5mC]*dA*eGe[5mC]eGeGe[5mC]) [ISIS 21844] | 75 | 8 | 5 | 36 | 80 | % p38α mRNA INHIBITION (rat p38α mRNA): 25%
5 | AoCoAoToTsGsCsTsGsGsGsCsTsTsCsAoGoGoToC (antisense eAe[5mC]eAeTeT*dG*d[5mC]*dT*dG*dG*dG*d[5mC]*dT*dT*d[5mC]*eAeGeGeTe[5mC]) [ISIS 100808] |  |  |  |  |  | % p38α mRNA INHIBITION (mouse p38α mRNA [1]; [4]): 13%
6 | CoCoCoToGsCsAsGsCsCsGsCsTsGsCsGoGoCoAoC (antisense e[5mC]e[5mC]e[5mC]eTeG*d[5mC]*dA*dG*d[5mC]*d[5mC]*dG*d[5mC]*dT*dG*d[5mC]*eGeGe[5mC]eAe[5mC]) [ISIS 100802] |  |  |  |  |  | % p38α mRNA EXPRESSION (human p38α mRNA): 78%; % p38β mRNA Inhibition (mouse p38β mRNA; [4]): 35%; % p38β mRNA Expression (human p38β mRNA): 47%
7 | CoAoToCoAsTsCsAsGsGsGsTsCsGsTsGoGoToAoC (antisense e[5mC]eAeTe[5mC]eA*dT*d[5mC]*dA*dG*dG*dG*dT*d[5mC]*dG*dT*eGeGeTeAe[5mC]) [ISIS 21871] | 12 | 24 | 56 | 34 | 89 | % IL-6 INHIBITION (IL-6 secretion; DOSE 200, 1 ng/mL mouse IL-1 for 6 hours): 23%; % p38β mRNA Inhibition (mouse p38β mRNA; dose 5 nM): 4%; % p38α mRNA INHIBITION (mouse p38α mRNA [1]; dose 1 nM): 1%; % p38α mRNA INHIBITION (mouse p38α mRNA [1]; dose 5 nM): 23%
8 | GoGoCoAoCsAsAsAsGsCsTsAsAsTsGsAoCoToToC (antisense eGeGe[5mC]eAe[5mC]*dA*dA*dA*dG*d[5mC]*dT*dA*dA*dT*dG*eAe[5mC]eTeTe[5mC]) [ISIS 21872] | 13 |  | 1 | 35 | 76 | 
9 | GoGoCoToAsCsCsAsTsGsAsGsTsGsAsGoAoAoGoA (antisense eGeGe[5mC]eTeA*d[5mC]*d[5mC]*dA*dT*dG*dA*dG*dT*dG*dA*eGeAeAeGeA) [ISIS 21879] | 11 |  |  |  |  | 
10 | ToCoToToCsCsAsAsTsGsGsAsGsAsAsAoCoToGoG (antisense eTe[5mC]eTeTe[5mC]*d[5mC]*dA*dA*dT*dG*dG*dA*dG*dA*dA*eAe[5mC]eTeGeG) [ISIS 21881] | 31 |  |  |  |  | 
